Data taken from patent publication US7081349B1 (The General Hospital Corporation, priority 1994, dated 2006).
Where two headings read alike, the source gives them in different places.

How the values were obtained:
[1] = biological target: T1, sheep high-affinity melatonin 1a receptor (Ovis aries, UniProt P48040); assay: 125I-melatonin saturation and competition binding, whole COS-7 cells transfected with sheep receptor cDNA
T1 construct: expressed in transfected cells; host or cells: COS-7 cells, transient, pcDNAI, DEAE-dextran
Description: (§1) Data shown are representative of three experiments. […] The data shown are representative of at least three experiments.
For ligand binding studies, the sheep receptor cDNA (SEQ ID NO:3) in pcDNAI was introduced into COS-7 cells using the DEAE-dextran method (Cullen, B. R. Methods Enzymol. (1987) 152:684-704). Approximately two to three days after transfection, cell culture medium was removed, the cultures dishes were washed with PBS, and the cells were harvested.
The cells were then pelleted (2500 rpm; 10 min, 4° C.) and stored at −80° C. Whole cell binding studies were performed by thawing the cells and resuspending them in binding buffer (50 mM Tris-HCl, pH 7.4, with 5 mM MgCl2) at a concentration of 200-500 μg protein/ml. The cell suspension was incubated with ^125I-Mel with or without drugs in a total reaction volume of 0.2 ml binding buffer; the suspension as incubated in a shaker bath for 1.5 hr at 25° C. All determinations were done in either duplicate or triplicate. Protein measurements were performed using the Pierce BCA Protein Assay. Binding data were analyzed by computer using the LIGAND Program of Munson and Rodbard (1980).

[2] = biological target: T2, Xenopus high-affinity melatonin receptor (Xenopus laevis, UniProt P49219); assay: 125I-melatonin saturation and competition binding, whole COS-7 cells transiently expressing Xenopus receptor cDNA; set-up: expressed in transfected cells; host or cells: COS-7 cells, transient, pcDNAI
T2 sequence (P49219 1-420): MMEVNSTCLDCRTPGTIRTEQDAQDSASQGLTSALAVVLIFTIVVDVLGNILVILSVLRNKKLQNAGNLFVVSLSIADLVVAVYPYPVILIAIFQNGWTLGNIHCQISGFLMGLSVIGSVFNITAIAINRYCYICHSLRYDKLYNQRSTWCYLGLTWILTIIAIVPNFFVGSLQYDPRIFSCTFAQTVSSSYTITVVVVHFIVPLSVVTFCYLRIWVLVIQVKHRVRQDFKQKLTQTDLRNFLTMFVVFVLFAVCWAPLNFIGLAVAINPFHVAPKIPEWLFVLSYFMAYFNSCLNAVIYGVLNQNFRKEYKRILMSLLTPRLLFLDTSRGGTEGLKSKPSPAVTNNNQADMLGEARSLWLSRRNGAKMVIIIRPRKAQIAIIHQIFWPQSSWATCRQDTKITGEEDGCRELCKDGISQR
Method: Three days after transfection, medium was removed, the culture dishes were washed with PBS, and the cells were harvested. The cells were then pelleted (2500 rpm; 10 min, 4° C.) and stored at −80° C. Whole cell binding studies were performed by thawing the cells and resuspending them in binding buffer (50 mM Tris-HCl, pH 7.4, with 5 mM MgCl2) at a concentration of 456 μg protein 1 ml. […] Protein determinations were performed using the Pierce BCA Protein Assay (The Pierce Chemical Co., Rockford, Ill.). Binding data were analyzed by computer using the LIGAND Program of Munson and Rodbard ((1980) supra).
(§2) The Bmax value using the whole cell binding assay was 67±7 fmol/mg of protein.

human Mel-1b receptor = biological target: T3, human Mel-1b receptor (Homo sapiens, UniProt P49286); assay: 125I-Mel saturation and competition binding, membranes of COS-1 cells transfected with human Mel-1b receptor cDNA; details: for Ki: 200 pM 125I-Mel, mean ± SE of 3-5 experiments; for Ratio (Mel-1a/Mel-1b): ratio of Ki values; for inhibition of specific 125I-Mel binding: micromolar concentrations, human Mel-1b
T3 construct: expressed in transfected cells; host or cells: COS-1 cells, transient, pcDNA3; crude membrane homogenates
T3 sequence (P49286 1-362): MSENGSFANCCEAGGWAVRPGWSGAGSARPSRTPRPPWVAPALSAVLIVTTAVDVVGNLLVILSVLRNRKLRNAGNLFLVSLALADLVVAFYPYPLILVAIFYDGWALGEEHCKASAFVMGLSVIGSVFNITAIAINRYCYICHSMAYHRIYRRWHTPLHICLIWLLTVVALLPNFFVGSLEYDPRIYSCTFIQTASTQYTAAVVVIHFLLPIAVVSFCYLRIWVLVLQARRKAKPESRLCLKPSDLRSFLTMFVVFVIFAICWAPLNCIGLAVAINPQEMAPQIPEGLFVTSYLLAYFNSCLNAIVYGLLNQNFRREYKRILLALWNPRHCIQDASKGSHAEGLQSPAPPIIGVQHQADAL
Method: Inset: Scatchard plot of saturation data. […] Data shown are representative of five experiments.
(§3) The data shown are mean values of three to five experiments for each drug.
Binding and pharmacological properties of the human Mel-1b receptor were examined by transiently expressing the receptor cDNA in COS-1 cells.
(§4) Expression studies were performed as follows. COS-1 and NIH 3T3 cells were grown as monolayers in Dulbeccols modified Eagle's medium (DMEM) supplemented with 10% fetal calf serum, penicillin (50 U/ml), and streptomycin (50 μg/ml), in 5% CO2 at 37° C. […] Three days after transfection, medium was removed, and the dishes were washed with PBS. The cells were harvested in Hank's balanced salt solution and centrifuged (1400×g; 10 min, 4° C.). The resultant pellets were stored at −80° C. Crude membrane homogenates were prepared by thawing the pellets on ice and resuspending them in TME buffer (pH 7.4) consisting of 50 mM Tris base, 12.5 mM MgCl2, 1 mM EDTA, and supplemented with 10 μg/ml aprotinin and leupeptin, and 100 μM phenylmethylsulfonylfluoride. The cells were then homogenized using a dounce homogenizer and centrifuged (45,000×g; 15 min at 4° C.). The resulting pellet was resuspended with a dounce homogenizer in TME and frozen at […] in aliquots.
(§5) Incubations were initiated by the addition of the membrane preparation and were conducted at 37° C. for 60 min. […] All determinations were done in either duplicate or triplicate.
(§6) Protein measurements were performed by the method of Bradford (Bradford, M. M. (1976) Anal. Biochem. 72, 248-254), using bovine serum albumin as the standard.
(§7) For comparison, binding and pharmacology of COS-1 cells transiently expressing the human Mel-1a receptor were assessed in parallel.

human Mel-1a receptor = biological target: T4, human Mel-1a receptor (Homo sapiens, UniProt P48039); assay: 125I-Mel saturation and competition binding, membranes of COS-1 cells transfected with human Mel-1a receptor cDNA; details: 100 pM 125I-Mel, mean ± SE of 3-5 experiments
T4 construct: expressed in transfected cells; host or cells: COS-1 cells, transient, pcDNA3; crude membrane homogenates
Method: as §3, §4, §5, §6, §7

[3] = biological target: T5, human high-affinity melatonin 1a receptor (Homo sapiens, UniProt P48039); assay: 125I-melatonin saturation and competition binding, COS-7 cells transfected with complete human Mel-1a receptor cDNA; details: 100 pM 125I-Mel, one-site model
T5 construct: expressed in transfected cells; host or cells: COS-7 cells, transient, pcDNAI
Description: as §1

human SCN = details: quantitative 125I-Mel autoradiography, Reppert et al. 1988; cited from earlier work
[4] = test system: mock-transfected COS-7 cells; assay: 125I-melatonin binding in mock-transfected COS-7 cells
Description: as §2

sheep Mel-1a receptor = biological target: T6, sheep Mel-1a receptor (Ovis aries, UniProt P48040); assay: Inhibition of forskolin-stimulated cAMP accumulation in NIH 3T3 cells stably transfected with sheep receptor cDNA; type: cell-based; details: for effect of pertussis toxin pretreatment on melatonin inhibition of forskolin-stimulated cAMP: PTX 100 ng/ml, 18 hours, 1 μM melatonin, 10 μM forskolin
T6 construct: expressed in transfected cells
Method: The 100% value is the mean cAMP value induced with 10 μM forskolin. […] Cells were preincubated with either vehicle or pertussis toxin for 18 hours (PTX: 100 ng/ml; pertussis toxin was purchased from List, Campbell, Calif.). […] Data are the mean plus standard deviation for 3 plates for each treatment.
Transformed NIH 3T3 cells were plated on 35 mm dishes. After forty-eight hours, the cells were washed twice with DMEM, and then incubated with or without drugs (diluted in DMEM) for 10 min at 37° C. At the end of treatment, the medium was aspirated and 1 ml of 50 mM acetic acid was added. The cells were collected, transferred to an Eppendorf tube, boiled for 5 min, and centrifuged (13,750 rpm for 15 min). The supernatant was collected and assayed for cAMP. All determinations were done in triplicate. Cyclic AMP levels were determined in duplicate by radioimmunoassay by standard techniques.

mouse Mel-1a receptor = mouse Mel-1a receptor (Mus musculus, UniProt Q61184, F119L/I348L/K349P/L29M/L347F); details: COS-7 cells; comparable to sheep and human Mel-1a receptors
[5] = biological target: T2, Xenopus high-affinity melatonin receptor; assay: Inhibition of forskolin-stimulated cAMP accumulation in CHO cells stably transfected with Xenopus receptor cDNA; type: cell-based; set-up: expressed in transfected cells
Method: The 100% value is the mean cAMP value induced with 10 μM forskolin.
Transformed CHO cells were plated on 35 mm culture dishes. After 48 hours, the cells were washed twice with Ham's F-12 (Life Technologies, Bethesda, Md.). […] Following treatment, the medium was aspirated and 1 ml of 50 mM acetic acid was added to the culture dish. The cells were collected, transferred to an Eppendorf tube, boiled for 5 min, and centrifuged (13,750 rpm for 15 min). The supernatant was collected and assayed for cAMP. All determinations were performed in triplicate. Cyclic AMP levels were determined in duplicate by radioimmunoassay (New England Nuclear, Boston, Mass.).

[6] = 100 pM 125I-Mel, COS-7 cells, sheep receptor, one-site model, read-out: Ki, competition for 125I-Mel binding
[7] = 100 pM 125I-melatonin, COS-7 cells, Xenopus receptor, representative of three experiments, read-out: Ki, competition for 125I-melatonin binding

T6 sequence (P48040 whole entry): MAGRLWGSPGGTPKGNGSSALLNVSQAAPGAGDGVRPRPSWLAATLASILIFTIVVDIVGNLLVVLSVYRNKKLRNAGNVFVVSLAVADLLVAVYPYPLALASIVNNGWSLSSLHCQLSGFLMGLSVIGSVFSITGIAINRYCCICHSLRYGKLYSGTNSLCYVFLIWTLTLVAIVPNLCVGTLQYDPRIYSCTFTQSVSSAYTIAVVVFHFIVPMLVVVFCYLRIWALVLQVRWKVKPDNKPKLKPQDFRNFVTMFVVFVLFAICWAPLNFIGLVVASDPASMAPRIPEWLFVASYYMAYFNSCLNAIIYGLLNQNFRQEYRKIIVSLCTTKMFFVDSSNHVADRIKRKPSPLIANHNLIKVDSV
T1 sequence (P48040 whole entry): as above
T5 sequence (P48039 whole entry): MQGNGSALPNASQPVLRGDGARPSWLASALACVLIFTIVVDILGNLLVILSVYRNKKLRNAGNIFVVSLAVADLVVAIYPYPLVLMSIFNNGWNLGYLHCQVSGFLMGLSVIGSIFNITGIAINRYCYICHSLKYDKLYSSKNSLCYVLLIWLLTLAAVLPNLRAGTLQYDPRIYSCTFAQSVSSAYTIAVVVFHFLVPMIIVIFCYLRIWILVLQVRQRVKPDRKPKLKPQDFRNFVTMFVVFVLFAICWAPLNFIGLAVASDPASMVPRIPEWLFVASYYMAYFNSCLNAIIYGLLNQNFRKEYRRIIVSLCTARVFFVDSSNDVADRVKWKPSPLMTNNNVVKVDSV
T4 sequence (P48039 whole entry): as above
mouse Mel-1a receptor, sequence (Q61184 whole entry L29M/F119L/L347F/I348L/K349P): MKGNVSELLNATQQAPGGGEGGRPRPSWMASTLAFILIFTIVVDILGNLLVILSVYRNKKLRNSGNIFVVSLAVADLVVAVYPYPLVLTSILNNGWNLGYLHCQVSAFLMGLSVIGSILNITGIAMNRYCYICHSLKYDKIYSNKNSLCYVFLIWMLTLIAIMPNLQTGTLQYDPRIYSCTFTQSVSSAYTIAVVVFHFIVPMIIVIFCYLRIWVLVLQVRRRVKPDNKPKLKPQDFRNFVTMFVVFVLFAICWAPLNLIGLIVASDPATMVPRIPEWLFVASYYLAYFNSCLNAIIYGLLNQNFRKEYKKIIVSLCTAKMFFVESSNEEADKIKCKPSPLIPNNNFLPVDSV

`COc1ccc2[nH]c(I)c(CCNC(C)=O)c2c1` [2-iodomelatonin] gave a Ki [1] of 0.037 nM and a Ki [2] of 0.11 nM.
For `COc1ccc2[nH]c(-c3ccccc3)c(CCNC(C)=O)c2c1` [2-phenylmelatonin], the Ki (human Mel-1b receptor) was 0.26 ± 0.06 nM, the “Ratio (Mel-1a/Mel-1b)” value (human Mel-1b receptor) was 0.8 and the Ki (human Mel-1a receptor) was 0.21 ± 0.06 nM.
For `NCCc1c[nH]c2ccc(O)cc12` [5-HT, 5-hydroxytryptamine], the Ki [1, 6] was > 100000 nM, the Ki [3] was > 100000 nM and the “inhibition of specific 125I-Mel binding” value (human Mel-1b receptor) was “did not inhibit”. The Ki (human Mel-1a receptor) was > 10000 nM, the affinity (human SCN) was “very low affinity” and the Ki [2, 7] was > 100000 nM.
For `COc1cc2c(CCNC(C)=O)c[nH]c2cc1Cl` [6-chloromelatonin], the Ki [1, 6] is given as 0.25 nM, the affinity (human SCN) is given as “high affinity” and the Ki [2, 7] is given as 3 nM.
`COc1cc2c(CCNC(C)=O)c[nH]c2cc1O` [6-hydroxymelatonin] showed a Ki [1, 6] of 3 nM, a Ki [3] of 2 nM and a Ki [2, 7] of 20 nM.
Work on `CC(=O)NCCc1c[nH]c2ccc(O)cc12` [NAS, N-acetyl-5-hydroxytryptamine] yielded a Ki [1, 6] of 140 nM, a Ki [3] of 170 nM and a Ki (human Mel-1b receptor) of 595 ± 127 nM. The “Ratio (Mel-1a/Mel-1b)” value (human Mel-1b receptor) was 1.6, the Ki (human Mel-1a receptor) was 986 ± 137 nM and the Ki [2, 7] was 2000 nM.
With `COc1ccc2[nH]c(I)c(CCNC(C)=O)c2c1` [^125I-melatonin, 2-[^125I]-iodomelatonin] the Ki ([1]; FIG. 14a inset, COS-7 cells, sheep receptor, representative experiment, read-out: Ki value for the sheep receptor from Scatchard plot of saturation data) was 0.036 nM and the Kd ([2]; saturation 5 to 1280 pM, COS-7 cells, Xenopus receptor, n=3 experiments, read-out: Kd of 125I-melatonin (Scatchard analysis)) was 0.063 nM.
For `COc1ccc2[nH]c([125I])c(CCNC(C)=O)c2c1` [^125I-melatonin, 2-[^125I]-iodomelatonin], the “specific binding of 125I-melatonin” value [4] was “No specific binding”.
In the case of `COc1ccc2[nH]cc(CCNC(C)=O)c2c1` [melatonin], the “inhibition of forskolin-stimulated cAMP accumulation in vector-only cells” value (sheep Mel-1a receptor; melatonin 1 μM, NIH 3T3 cells with pcDNAI NEO lacking the sheep receptor cDNA) is reported as “did not inhibit”, the “effect on basal cAMP levels” value (sheep Mel-1a receptor; stably transfected NIH 3T3 lines, sheep receptor) is reported as “did not alter basal cAMP levels” and the binding affinity (mouse Mel-1a receptor) is reported as “high affinity”. For the same compound, the affinity (human SCN) was “high affinity”, the inhibition at 0.01 µM ([5]; CHO, read-out: maximal inhibition of the mean forskolin-stimulated cAMP concentration) was 68% and the IC50 ([5]; manual curve fitting of FIG. 12, 10 μM forskolin, CHO cells, Xenopus receptor) was ~0.8 nM. The “inhibition of forskolin-stimulated cAMP increase in vector-only cells” value ([5]; melatonin 1×10^−6 M, CHO cells stably transfected with vector lacking the Xenopus cDNA) was “did not inhibit”, the “effect on basal cAMP levels” value ([5]; melatonin alone 1×10^−6 M, stably transfected CHO cells) was “not to alter basal cAMP levels” and the Ki [2, 7] was 1.3 nM.
In the case of `COc1cc2nc(N3CCN(C(=O)c4ccco4)CC3)nc(N)c2cc1OC` [prazosin], the “inhibition of specific 125I-Mel binding” value (human Mel-1b receptor) is reported as “did not inhibit”.
With Pertussis toxin the “effect of pertussis toxin pretreatment on melatonin inhibition of forskolin-stimulated cAMP” value (sheep Mel-1a receptor) was “completely abolished” and the “effect of pertussis toxin pretreatment on melatonin inhibition of forskolin-stimulated cAMP” value (sheep Mel-1a receptor; listed as pertussis toxin) was “blocks”.
